One test has as its target ITK (Homo sapiens (Human), UniProt Q08881). Put plainly: ITK inhibitor binding potency (LanthaScreen competitive binding assay). The following applies: read-out: ITK Inh. IC50. The text has this:
The ability of candidate compounds to interact with ITK is quantitated by a competitive binding assay using the LanthaScreen technology developed by Life Technologies. This assay is based on the binding of a proprietary, Alexa Fluor® 647-labeled, ATP-competitive kinase inhibitor (kinase tracer-236) to the ITK expression construct in the presence of a Europium-conjugated antibody, resulting in a FRET (fluorescence resonance energy transfer) signal. Displacement of the kinase tracer by compound results in a lower emission ratio upon excitation of the Europium chelate. Candidate compounds are designed as potential irreversible inhibitors of ITK, capable of ligating to an active site cysteine residue resulting in time dependent covalent binding. The time dependent nature of irreversible inhibition is investigated by performing the binding assay with and without a pre-incubation of compound and ITK. […] The inhibitory potency of candidate compounds is measured in 20 mM HEPES pH 7.5, 10 mM MgCl2, 0.01% BSA, 0.0005% Tween-20, and 2% DMSO in the presence of 10 nM ITK, 2 nM Eu-anti-GST antibody, and 50 nM kinase tracer-236 using a 384-well plate format. Background signal is defined in the absence of ITK and uninhibited signal is defined in the presence of vehicle (2% DMSO) alone. Compounds were evaluated in an 11 point dose-response ranging from 20 uM to 0.34 nM. The binding assays are performed under two preincubation conditions to evaluate time dependence of inhibition. For the pre-incubation assay, ITK and Eu-anti-GST antibody are pre-incubated with compound or vehicle for two hours prior to the addition of kinase tracer. The non-preincubated assay is run under conditions where ITK and Eu-anti-GST antibody are added to a mixture of compound and kinase tracer. IC50 values of compounds are determined using a 4 parameter logistical fit of emission ratio as a function of the concentration of compound.
Background: In TR-FRET formats the signal depends on donor and acceptor labels being close together.

The target of a further test is JAK3 (Homo sapiens (Human), UniProt P52333). As to the kind of experiment: JAK3 enzyme activity assay (Caliper mobility shift). Type of test: biochemical. The following applies: ATP at Km level; read-out: JAK3 Inh. IC50. From the text:
The ability of candidate compounds to interact with JAK3 is quantitated by a mobility shift assay using an LC3000 instrument developed by Caliper Life Sciences. This assay is based on mobility shift electrophoresis, in which fluorescently labelled product and fluorescently labelled substrate peaks are separated and detected independently. JAK3 product/substrate separation is obtained using the following instrument settings: Pressure=−1.4 psi, Downstream voltage=−2550V and Upstream voltage=−800V. The inhibitory potency of candidate compounds of JAK3 is measured in 20 mM HEPES pH 7.5, 10 mM MgCl2, 0.01% BSA, 0.0005% Tween-20, and 2% DMSO in the presence of 2.5 nM JAK3 (Life Technologies Catalog #PV3855), […] (Anaspec Catalog #AS-64106) and […] (Km level) using a 384-well plate format. Background signal is defined in the absence of enzyme and uninhibited signal is defined in the presence of vehicle (2% DMSO) alone. Compounds were evaluated in an 11 point dose-response ranging from […] to 0.34 nM. IC50 values of compounds are determined using a 4 parameter logistical fit of emission ratio as a function of the concentration of compound.

The subject of test [1] is ITK phosphorylation of its substrate, PLCγ1, at Y783. As to the kind of experiment: ITK target modulation assay (PLCγ1 Y783 phosphorylation, anti-CD3 stimulated Jurkat T cells). The following applies: Homo sapiens, Jurkat, anti-CD3 Dynabeads stimulation, read-out: PLC-γ Inh. IC50. Type of test: cell-based. The method, then: Target modulation was based upon the ability of a compound to inhibit ITK phosphorylation of its substrate, PLCγ1, at Y783. Human Jurkat T cells (ATCC TIB-152) were plated in V-bottom 96 well plates at 400,000 cells/well in 80 μL medium (RPMI1640 with 10% heat inactivated serum and 55 μM 2-mercaptoethanol and supplemented with glutamine/penicillin/streptomycin). Compounds were added as 10 μL of 10× working stock solutions in medium with 1% DMSO (or medium with 1% DMSO for controls) and placed in a 37° C. incubator with gentle shaking for 1 hour. Stimulation was carried out using anti-CD3 Dynabeads (Invitrogen catalog #1151D) to activate the T cell receptor and mimic antigen presenting cells. Beads were washed and resuspended in medium at 1.84×10^8 beads/ml. Beads were added rapidly to all compound containing and stimulation only wells at 10 μL/well (bead:cell=2:1) with gentle mixing of the bead source between each addition. Wells designated ‘unstimulated’ received 10 μL of media only. The plate was immediately sealed with a plate seal and cells pelleted at 400× g for 4 minutes. Media was removed using a multichannel aspirator, 25 μL of cold hypotonic lysis buffer (VWR M334-100 ml) plus 1×HALT Protease Inhibitor Cocktail (ThermoFisher #78437), 1× Phosphatase Inhibitor Cocktail 2 (Sigma Aldrich #P5726), 1× Phosphatase Inhibitor Cocktail 3 (Sigma Aldrich #P0044) and 2 mM PMSF was added per well. Cells were incubated on ice for 30 minutes to swell the cells then lysed by pipetting 20 times using a multichannel pipet. The plates were then resealed and centrifuged for 5 minutes at 400× g to pellet the cellular debris. Two μL of the soluble component of each sample was spotted onto nitrocellulose and allowed to dry for 30 minutes. Nitrocellulose was wet in 1× Tris Buffer Saline (20 mM Tris pH7.5, 150 mM NaCl) then blocked in LiCOR Odyssey Blocking Buffer (TBS) (LiCOR #927-50000) for 1 hour at room temperature with rocking. Following blocking, nitrocellulose was incubated in LiCOR Odyssey Blocking Buffer (TBS) plus 0.2% Tween20 plus anti-phospho-PLCγ1 (Y783) antibody (CST #2821S) at 1:1000 and anti-PLCγ1 (Abcam #41433) at 1:5000 with gentle rocking overnight at 4° C. Nitrocellulose was then washed four times for 5 minutes each with TBS plus 0.1% Tween20 (TBST) then incubated in LiCOR Odyssey Blocking Buffer (TBS) plus 0.2% Tween20 plus secondary antibodies IRDye 800CW (LiCOR 926-32211) and IRDye 680RD (LiCOR 926-68070) both at 1:15,000 with gentle rocking at room temperature in the dark for 1 hour. Nitrocellulose was then washed four times for 5 minutes each with TBST at room temperature in the dark. A final rinse with TBS was done prior to imaging and quantifying using the LiCOR Odyssey Imager and software respectively.

Test [2] has as its system JAK1/3 phosphorylation of its substrate, STAT5, at Y694. Put plainly: JAK1/3 target modulation assay (IL-2 stimulated STAT5 Y694 phosphorylation in PBMC). Type of test: cell-based. The following applies: Homo sapiens, PBMC, Primary human peripheral blood mononuclear cells, IL-2 25 ng/mL; read-out: IL2-STAT5 Inh. IC50. The method, then: Target modulation was based upon the ability of a compound to inhibit JAK1/3 phosphorylation of its substrate, STAT5, at Y694. Primary human peripheral blood mononuclear cells were plated in V-bottom 96 well plates at 200,000 cells/well in 120 μL medium (RPMI-1640 with 10% fetal bovine serum, 10 mM HEPES buffer, 12.2 mM 2-mercaptoethanol, and supplemented with glutamine/penicillin/streptomycin). Compounds were added as 15 μL of 10× working stock solutions in medium with 1% DMSO (or medium with 1% DMSO for controls) and placed in a 37° C. incubator with gentle shaking for 1 hour. Stimulation was carried out using recombinant human IL-2 (R&D Systems #202-IL-050) to activate JAK1/3. IL-2 stock solution was diluted in media to 250 ng/mL and was added rapidly to all compound containing and stimulation only wells at 15 μL/well (final concentration=25 ng/mL). Wells designated ‘unstimulated’ received 15 μL of media only. The plate was placed back in a 37° C. incubator with gentle shaking for 5 minutes. After stimulation, the plates were immediately sealed with a plate seal, and cells pelleted at 400× g for 5 minutes. Media was removed using a multichannel aspirator, and 75 μL of cold Tris lysis buffer (MSD #R60TX-3) plus 1× Protease Inhibitor Solution (MSD #R70AA-1), 1× Phosphatase Inhibitor I (MSD #R70AA-1), and 1× Phosphatase Inhibitor II (MSD #R70AA-1) was added per well. Cells were incubated at 4° C. with gentle shaking for at least 30 minutes to allow for complete lysis. The plates were removed from 4° C., and 25 μL of lysate from each well was added to the corresponding well on the MSD plate. Samples were analyzed by either an MSD multiplex kit for Phospho-STAT5a,b/Total-STAT5a,b (MSD #K15163D) or an MSD single-plex kit for Phospho-STAT5a,b (MSD #K150IGD). The protocols for the respective kits were followed, and the plates were read on the MSD SECTOR S 600.

From US12297203B2, “Pyrrolopyrimidine ITK inhibitors” (ACLARIS THERAPEUTICS, INC., priority 2018, dated 2025) come the findings set out here.

Molecules are shown by their SMILES.

The IC50 is the point on the concentration scale where inhibition reaches its midpoint.

ITK, sequence (Q08881 whole entry): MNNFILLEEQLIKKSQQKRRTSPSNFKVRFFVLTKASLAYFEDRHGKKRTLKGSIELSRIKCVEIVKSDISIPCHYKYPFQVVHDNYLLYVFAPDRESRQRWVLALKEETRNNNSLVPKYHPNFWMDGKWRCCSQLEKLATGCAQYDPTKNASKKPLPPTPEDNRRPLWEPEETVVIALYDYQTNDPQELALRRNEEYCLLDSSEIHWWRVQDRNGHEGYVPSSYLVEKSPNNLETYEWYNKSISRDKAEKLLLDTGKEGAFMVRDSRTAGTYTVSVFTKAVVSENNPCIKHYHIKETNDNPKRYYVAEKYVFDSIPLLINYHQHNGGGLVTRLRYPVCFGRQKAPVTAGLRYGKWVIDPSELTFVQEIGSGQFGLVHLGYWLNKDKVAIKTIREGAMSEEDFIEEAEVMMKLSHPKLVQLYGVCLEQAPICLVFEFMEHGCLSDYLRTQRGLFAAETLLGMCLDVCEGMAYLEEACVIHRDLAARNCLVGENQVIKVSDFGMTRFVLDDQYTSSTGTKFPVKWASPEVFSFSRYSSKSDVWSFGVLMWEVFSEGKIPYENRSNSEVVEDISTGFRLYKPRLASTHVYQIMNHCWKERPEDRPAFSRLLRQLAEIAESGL
JAK3, sequence (P52333 781-1124): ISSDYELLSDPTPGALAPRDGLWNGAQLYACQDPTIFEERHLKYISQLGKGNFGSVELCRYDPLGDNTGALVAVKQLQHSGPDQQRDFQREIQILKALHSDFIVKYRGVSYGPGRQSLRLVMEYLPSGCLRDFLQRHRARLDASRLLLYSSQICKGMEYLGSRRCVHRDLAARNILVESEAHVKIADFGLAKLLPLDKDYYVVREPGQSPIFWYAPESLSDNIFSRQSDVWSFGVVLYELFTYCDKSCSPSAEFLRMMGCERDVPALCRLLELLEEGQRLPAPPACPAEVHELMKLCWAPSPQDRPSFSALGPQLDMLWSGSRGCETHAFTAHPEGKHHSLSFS

`C/C=C/C(=O)N1C[C@H](Nc2ncnc3[nH]cc([C@H]4CC4(F)F)c23)CC[C@@H]1C` (single isomer, unassigned) [Example 57]: the IC50 on ITK was greater than 100 nM; on JAK3, greater than 100 nM; in test [1], greater than 1000 nM; in test [2], greater than 1000 nM.
Turning to `C/C=C/C(=O)N1C[C@H](Nc2ncnc3[nH]cc([C@@H]4CC4(F)F)c23)CC[C@@H]1C` (single isomer, unassigned) [Example 58], the IC50 is greater than 100 nM at ITK, greater than 100 nM on JAK3, 100 to 1000 nM in test [1] and greater than 1000 nM in test [2].
Regarding `C[C@H]1CC[C@@H](Nc2ncnc3[nH]cc([C@H]4CC4(F)F)c23)CN1C(=O)/C=C/CN(C)C` (single isomer, unassigned) [Example 60], the IC50 at ITK is no more than 10 nM; at JAK3, no more than 10 nM; in test [1], no more than 100 nM; in test [2], 100 to 1000 nM.
With `C[C@H]1CC[C@@H](Nc2ncnc3[nH]cc([C@@H]4CC4(F)F)c23)CN1C(=O)/C=C/CN(C)C` (single isomer, unassigned) [Example 61], the IC50 at ITK was no more than 10 nM; on JAK3 it was 10 to 100 nM; in test [1] it was 100 to 1000 nM; in test [2], greater than 1000 nM.
With `C=C(C)C(=O)N1C[C@H](Nc2ncnc3[nH]cc([C@H]4CC4(F)F)c23)CC[C@@H]1C` (single isomer, unassigned) [Example 62], the half-inhibitory concentration (IC50) on ITK was greater than 100 nM; at JAK3 it was greater than 100 nM; in test [1], 100 to 1000 nM; in test [2], greater than 1000 nM.
Regarding `C=CC(=O)N1C[C@H](Nc2ncnc3[nH]cc([C@H]4CC4(F)F)c23)CC[C@@H]1C(C)C` (single isomer, unassigned) [Example 63], the IC50 on ITK was greater than 100 nM; at JAK3 it was greater than 100 nM; in test [1] it was greater than 1000 nM; in test [2], greater than 1000 nM.
Regarding `C=CC(=O)N1C[C@H](Nc2ncnc3[nH]cc([C@@H]4CC4(F)F)c23)CC[C@@H]1C(C)C` (single isomer, unassigned) [Example 64], the IC50 on ITK is greater than 100 nM; on JAK3, greater than 100 nM; in test [1], greater than 1000 nM; in test [2], greater than 1000 nM.
Consider `C=CC(=O)N1C[C@@H](Nc2ncnc3[nH]cc([C@H]4CC4(F)F)c23)CC[C@H]1C(C)C` (single isomer, unassigned) [Example 65], for which the half-maximal inhibitory concentration (IC50) at ITK is no more than 10 nM; on JAK3 it was no more than 10 nM; in test [1] it was no more than 100 nM; in test [2], 100 to 1000 nM.
Take `C=CC(=O)N1C[C@@H](Nc2ncnc3[nH]cc([C@@H]4CC4(F)F)c23)CC[C@H]1C(C)C` (single isomer, unassigned) [Example 66]: the IC50 on ITK is 10 to 100 nM; at JAK3, 10 to 100 nM; in test [1], 100 to 1000 nM; in test [2] it was greater than 1000 nM.
As for `C=CC(=O)N1C[C@H](Nc2ncnc3[nH]cc([C@H]4CC4(F)F)c23)CC[C@@H]1CC` (single isomer, unassigned) [Example 67], the IC50 was greater than 100 nM on ITK, greater than 100 nM on JAK3, greater than 1000 nM in test [1] and greater than 1000 nM in test [2].
As to `C=CC(=O)N1C[C@H](Nc2ncnc3[nH]cc([C@@H]4CC4(F)F)c23)CC[C@@H]1CC` (single isomer, unassigned) [Example 68], the IC50 on ITK was no more than 10 nM; at JAK3 it was no more than 10 nM; in test [1], no more than 100 nM; in test [2], no more than 100 nM.
Regarding `C=CC(=O)N1C[C@@H](Nc2ncnc3[nH]cc([C@H]4CC4(F)F)c23)CC[C@H]1CC` (single isomer, unassigned) [Example 69], the IC50 at ITK is 10 to 100 nM; on JAK3, 10 to 100 nM; in test [1] it was 100 to 1000 nM; in test [2], greater than 1000 nM.
Consider `C=CC(=O)N1C[C@@H](Nc2ncnc3[nH]cc([C@@H]4CC4(F)F)c23)CC[C@H]1CC` (single isomer, unassigned) [Example 70], for which the IC50 is no more than 10 nM on ITK, no more than 10 nM on JAK3, 100 to 1000 nM in test [1] and 100 to 1000 nM in test [2].
For `C=C(C)C(=O)N1C[C@H](Nc2ncnc3[nH]cc([C@@H]4CC4(F)F)c23)CC[C@@H]1C` (single isomer, unassigned) [Example 71], the IC50 is greater than 100 nM on ITK, greater than 100 nM at JAK3, greater than 1000 nM in test [1] and greater than 1000 nM in test [2].
